Assay results: patent publication US11369586B2, “Antifungal peptoids” (MIDDLE TENNESSEE STATE UNIVERSITY, priority 2018, dated 2022)

Tests used:
[1] = test system: C. neoformans H99S (serotype A lab strain); assay: Minimum inhibitory concentration (MIC) testing, CLSI broth dilution, PrestoBlue viability; format: cell-based, Cryptococcus neoformans
Method: The minimum inhibitory concentration (MIC) was determined against C. neoformans H99S (serotype A lab strain) as previously described. (Corson, et al. ACS Med. Chem. Lett. 2016, 7(12).) All MIC assays were carried out following CLSI guidelines. (CLSI. Reference method for broth dilution antifungal susceptibility testing of yeasts; approved standard-third edition; CLSI document M27-A3; Clinical and Laboratory Standards Institute: Wayne, Pa.) Briefly, the organism to be tested was streaked from frozen stock for isolation and incubated for 96 hours. A 5 mL solution of 0.85% saline was inoculated with 1-2 colonies of the organism of interest, and the inoculated solution was vortexed for one minute. The optical density at 530 nanometers (nm) was acquired on a spectrophotometer and adjusted through addition of saline or cells to obtain an OD530nm of 0.15 to 0.25. A 1:100 solution of Roswell Park Memorial Institute (RPMI) media containing 3-morpholinopropane sulfonic acid (MOPS; 0.1 M) and cells was made by adding 0.100 mL of saline inoculated with cells to 9.9 mL of RMPI. The solution was vortexed and used to make a 1:20 solution by adding and vortexing 0.5 mL of the 1:100 solution to 9.5 mL of RPMI+0.1 M MOPS. (This was repeated twice to make a total of 20 mL of 1:20 RPMI+ cells.)
Two-fold serial dilutions of peptoid were prepared in water at 100 times the concentration to be tested. In a 96-well plate, 198 μL of 1:20 RPMI+cells was placed in each well followed by 2 μL of 100-times compound or vehicle control in triplicate. The plate was incubated at 35° C. for 72 hours. For viability analysis, 20 μL of PrestoBlue was added to each well, the plate incubated for 8 hours, and the fluorescent intensity of each well measured (Ex. 555 nm; Em. 585 nm). All triplicate assays were repeated twice on different days.

[2] = test system: HepG2 hepatocarcinoma cells; assay: Mammalian cytotoxicity testing (MTT), HepG2; format: cell-based; conditions: for toxicity dose 50% (TD50), HepG2: sarcosine scan
Method: (§1) NIH/3T3 mouse fibroblasts and HepG2 hepatocarcinoma cells, cells were grown in DMEM containing 10% FBS at 37° C. and 5% CO2 atmosphere. For cytotoxicity testing, cells were seeded into 96-well plates in phenol red free DMEM containing 10% FBS and incubated for 2 hours to allow cell attachment. Cells were then treated with varying concentrations of peptoid or vehicle control. After 72 hours incubation, 3-(4,5-dimethylthiazol-2-yl)-2,5-diphenyltetrazolium bromide (MTT; 20 μL; 5 mg/mL) was added to each well and the plate incubated for 3.5 hours. Media was removed from each well and 100 μL of DMSO was added and the plate incubated at 37° C. for 10 minutes. The absorbance at 570 nm was then read on a spectrophotometer, percent inhibition determined, and TD50 calculated using GraFit. All triplicate assays were repeated twice on different days.

[3] = test system: human red blood cells (hRBCs); assay: Hemolytic activity against human red blood cells; format: cell-based; conditions: human erythrocytes, HC10
Method: The hemolytic activity of peptoids against human red blood cells (hRBCs) was done as previously described. (Murugan et al. Bioorg. Med. Chem. Lett. 2013, 23(16), 4633-4636.) Briefly, hRBCs were washed 3× with PBS (11.8 mM phosphate; 140.4 mM NaCl; pH 7.4) by centrifugation (10 minutes at 1000×g). Cells were resuspended in PBS and 100 μL aliquots placed into individual wells of a 96-well plate. Peptoid solutions (2-fold serial dilution in PBS; 400-3.13 μg/mL final) were added to the wells. A negative control was prepared by adding PBS with no peptoid to the hRBCs and a positive control was prepared by adding 1% Triton X-100 to the hRBCs. The plate was incubated at 37° C. for 1 hour, centrifuged at 1000×g for 10 minutes, and 5 μL of supernatant transferred into 95 μL of PBS in a new 96-well plate. Released hemoglobin was measured by reading the absorbance at 405 nm on a spectrophotometer. All triplicate assays were repeated twice on different days. Percent hemolysis was calculated as follows:
[formula] The Hill Slope (H) and HC50 was determined using GraFit and HC10 was calculated from HC50 using the following equation: HC10=HC50[10%/(100%−10%)]^1/H NMR Analysis

[4] = test system: NIH/3T3 mouse fibroblasts; assay: Mammalian cytotoxicity testing (MTT), NIH/3T3; format: cell-based
Method: as §1, with “For” for “NIH/3T3 mouse fibroblasts and HepG2 hepatocarcinoma cells, cells were grown in DMEM containing 10% FBS at 37° C. and 5% CO2 atmosphere. For”

[5] = Corson et al. 2016; cited from earlier work
[6] = C. neoformans MIC, relative to AEC5

CCCCCCCCCCCCCNCC(=O)N(C)CC(=O)N(CC(N)=O)Cc1ccco1 [AEC5sar2]
fold decrease in antifungal potency compared to AEC5 [1, 6]: 2 fold
fold change of toxicity dose 50% (TD50) compared to AEC5 ([2]; HepG2, relative to AEC5, printed as increased): 2 fold
toxicity dose 50% (TD50), HepG2 [2]: 21.1 m/mL

CNCC(=O)N(CCCCN)CC(=O)N(CC(N)=O)Cc1ccco1 [AEC5sar1]
antifungal potency (MIC), above highest concentration tested ([1]; sarcosine scan): > 400 m/mL
toxicity dose 50% (TD50), HepG2 [2]: > 800 m/mL

CCCCCCCCCCCCCNCC(=O)N(CCCCN)CC(=O)N(C)CC(N)=O [AEC5sar3]
fold decrease in antifungal potency compared to AEC5 [1, 6]: 8 fold
change of mammalian cell toxicity compared to AEC5 ([2]; HepG2): little effect on mammalian toxicity

CCCCCCCCCCCCCNCC(=O)N(CCCCN)CC(=O)N(CC(N)=O)Cc1cccs1 [γ-2]
level of hemolysis compared to AEC5 [3]: slightly higher levels of hemolysis
toxicity towards NIH/3T3 mouse fibroblasts compared to AEC5 [4]: decreased toxicity
selectivity ratio, NIH/3T3 mouse fibroblasts ([4]; NIH/3T3 toxicity and C. neoformans MIC): 21
fold improvement in antifungal potency compared to AEC5 [1, 6]: 2 fold
MIC ([1]; Cryptococcus neoformans, read-out: MIC against C. neoformans): < 3.5 µg/mL
selectivity ratio (TD50/MIC) ([2]; HepG2 TD50 and C. neoformans MIC): 25.3

CCCCCCCCCCCCCNCC(=O)N(CCCCN)CC(=O)N(CC(N)=O)Cc1ccco1 [AEC5, reference compound]
TD50 against HepG2 liver cells ([2]; 72 hours incubation, MTT): 56.2 µg/mL
toxicity dose 50% (TD50), HepG2 [2]: 56.2 m/mL
in vitro proteolytic stability [5]: excellent
